The record followed here is ChEMBL document CHEMBL1201862, “PubChem BioAssay data set” (2004).

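Compound exposure: 48 hours, 5 concentrations, 96-well plates. GI50 is the concentration that inhibits growth by half.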 Calls of active or inactive are those of the source. Cut-off read from the data, not from the text of the source: active = GI50 up to about 1.1 µM and inactive = higher.

Holding throughout (assay): NCI tumour cell line growth inhibition, 48 h
Test [1] relates to A498.
For test [2], the system named is A549.
In test [3] the test system is ACHN.
For test [4], the system named is BT-549.
Test [5] has as its system CCRF-CEM.
In test [6] the test system is COLO 205.
Test [7] concerns HCT-116.
For test [8], the system named is IGROV-1.
For test [9], the system named is MDA-MB-231.
Test [10] concerns MOLT-4.
Test [11] has as its system NCI-H522.
The test system of test [12] is PC-3.
The test system of test [13] is SF-268.
Test [14] relates to SF-295.
For test [15], the system named is SF-539.
The test system of test [16] is SK-MEL-2.
The subject of test [17] is SK-OV-3.
The test system of test [18] is TK-10.
The subject of test [19] is U-251.
For test [20], the system named is UACC-62.

`C/C(=N/S(=O)(=O)c1ccc(Cl)c(Cl)c1)OCC(C)(C)C`: the GI50 in test [1], in test [2], in [3], in test [4], in test [5] and in [6] was > 100 µM (inactive) throughout. The GI50 in [7], in [8], in [9], in [10], in [11] and in test [12] was > 100 µM (inactive) each time. Moreover, the GI50 in test [13], in test [14], in [15], in test [16], in [17] and in [18] was > 100 µM (inactive) throughout. Also, the GI50 in test [19] and in test [20] was > 100 µM (inactive) each time.

Consider `CC(=O)c1c(C(F)(F)F)[n+]([O-])c2cc(Cl)c(Cl)cc2[n+]1[O-]`, for which the GI50 in [1] was 1.15 µM (inactive); in test [2], 0.575 µM (active); in test [3], 0.548 µM (active); in test [4] it was 0.211 µM (active); in test [5] it was 0.146 µM (active); in test [6], 0.746 µM (active). The GI50 was 0.249 µM (active) in test [7]; 0.111 µM (active) in [8]; 1.3 µM (inactive) in test [9]; 0.0798 µM (active) in test [10]; 0.165 µM (active) in test [11]; 1.31 µM (inactive) in test [12]. Further, the GI50 in test [13] was 1.15 µM (inactive); in test [14] it was 0.719 µM (active); in [15], 1.15 µM (inactive); in test [16], 1.19 µM (inactive); in [17] it was 1.46 µM (inactive); in [18] it was 0.212 µM (active). Further, the results for the GI50 in test [19] and in test [20] were 1.24 µM (inactive) and 1.26 µM (inactive), respectively.

As to `COC(=O)C1(O)C(c2ccccc2)NC2(C)CCCC21` (configuration not stated), the GI50 in [1], in [2], in [3], in [4], in test [5] and in test [6] was > 100 µM (inactive) each time. Also, the GI50 in test [7], in test [8], in test [9], in test [10], in test [11] and in [12] was > 100 µM (inactive) throughout. The GI50 in test [13], in test [14], in test [15], in test [16], in test [17] and in [18] was > 100 µM (inactive) throughout. Further, the GI50 in test [19] and in test [20] was > 100 µM (inactive) each time.

In the case of `COC(=O)c1ccc([N+](=O)[O-])c(O)c1`, the GI50 in [1], in test [2], in test [3], in [4], in test [5] and in test [6] was > 100 µM (inactive) in each case. Further, the GI50 in [7], in [8], in [9], in test [10], in [11] and in [12] was > 100 µM (inactive) each time. The GI50 in test [13], in test [14], in [15], in test [16], in test [17] and in test [18] was > 100 µM (inactive) in each case. Moreover, the GI50 in test [19] and in test [20] was > 100 µM (inactive) throughout.

Regarding `CN1C(=O)C23CCCCC2CC1(c1ccccc1)S3` (configuration not stated), the GI50 was > 100 µM (inactive) in [1]; 64.7 µM (inactive) in test [2]; > 100 µM (inactive) in test [3]; 99.3 µM (inactive) in test [4]; 71.9 µM (inactive) in test [6]; 60.3 µM (inactive) in [7]. Besides, the GI50 in test [8] was > 100 µM (inactive); in test [9], 71.1 µM (inactive); in test [10] it was 38.3 µM (inactive); in test [11], 76.2 µM (inactive); in [12] it was 44.1 µM (inactive); in [13], > 100 µM (inactive). The GI50 in [14] is 65.3 µM (inactive); in test [15], > 100 µM (inactive); in [16] it was 47.5 µM (inactive); in test [17] it was > 100 µM (inactive); in [18], 41.2 µM (inactive); in test [19], 77.4 µM (inactive). Besides, the GI50 in [20] is > 100 µM (inactive).

Turning to `C[C@]12CC/C(=N\O)C=C1CC[C@@H]1[C@@H]2CC[C@]2(C)C(=N/O)/C(=C/c3cccnc3)C[C@@H]12`, the GI50 in [1] is 14.5 µM (inactive); in test [2], 13.1 µM (inactive); in test [3], 16.8 µM (inactive); in [4] it was 12.6 µM (inactive); in [5] it was 7.38 µM (inactive); in test [6], 17.2 µM (inactive). The GI50 in test [7] is 17.5 µM (inactive); in [8], 30.4 µM (inactive); in [9] it was 17.7 µM (inactive); in [10], 0.546 µM (active); in test [11] it was 12.1 µM (inactive); in test [12], 6.95 µM (inactive). In addition, the GI50 in test [14] is 6.95 µM (inactive); in test [15], 25.2 µM (inactive); in test [16], 19.8 µM (inactive); in [17], 39.1 µM (inactive); in [18] it was 15.1 µM (inactive); in test [19], 22.6 µM (inactive). Besides, the GI50 in [20] was 3.3 µM (inactive).

Take `CC(=O)OCC1OC(n2c(S)nc(-c3ccccc3)c(C#N)c2=O)C(OC(C)=O)C(OC(C)=O)C1OC(C)=O` (configuration not stated): the GI50 in test [1], in test [2], in test [3], in test [4], in test [5] and in [6] was > 100 µM (inactive) throughout. Besides, the GI50 in test [7], in test [8], in test [9], in [10], in test [11] and in test [12] was > 100 µM (inactive) each time. In addition, the GI50 in test [13], in [14], in test [15], in [16], in [17] and in [18] was > 100 µM (inactive) each time. Besides, the GI50 in [19] and in test [20] was > 100 µM (inactive) each time.

On to `CN(C)CCOc1ccc(-c2c(Oc3ccc(Cl)cc3)c(=O)oc3ccccc23)cc1`, for which the GI50 was 19.4 µM (inactive) in test [1]; 4.97 µM (inactive) in [2]; 18.6 µM (inactive) in [3]; 15 µM (inactive) in [4]; 4.41 µM (inactive) in test [5]; 3.61 µM (inactive) in [6]. The GI50 is 3.82 µM (inactive) in test [7]; 4.7 µM (inactive) in test [8]; 7.78 µM (inactive) in [9]; 5.47 µM (inactive) in [10]; 8.75 µM (inactive) in test [11]; 6.64 µM (inactive) in test [12]. The GI50 in test [13] was 8.69 µM (inactive); in test [14], 5.36 µM (inactive); in test [15], 9.84 µM (inactive); in [16], 7.59 µM (inactive); in [17], 10.4 µM (inactive); in [18], 10.4 µM (inactive). Further, the figures for the GI50 in [19] and in test [20] were 3.64 µM (inactive) and 4.97 µM (inactive), respectively.

Consider `CCOC(=O)C1(C/C=C/CBr)CCc2ccccc2C1=O` (configuration not stated), for which the GI50 in test [1] was 18.5 µM (inactive); in test [2], 14 µM (inactive); in [3], 13.6 µM (inactive); in test [4] it was 16.7 µM (inactive); in [5] it was 5.25 µM (inactive); in test [6], 17.2 µM (inactive). Besides, the GI50 is 13.3 µM (inactive) in test [7]; 11.1 µM (inactive) in test [8]; 18.2 µM (inactive) in test [9]; 9.1 µM (inactive) in test [10]; 12.6 µM (inactive) in [11]; 15.7 µM (inactive) in test [12]. The GI50 in [13] was 18.5 µM (inactive); in [14], 17.3 µM (inactive); in [15] it was 18.1 µM (inactive); in test [16] it was 14.1 µM (inactive); in test [17], 19 µM (inactive); in test [18], 10.4 µM (inactive). Further, the GI50 in test [19] was 14.1 µM (inactive); in test [20] it was 10.6 µM (inactive).

In the case of `C=C1C(=O)O[C@H]2[C@H]1CC(=O)/C(C)=C/CC[C@@]1(C)O[C@@H]21`, the GI50 in test [1] was 1.64 µM (inactive); in test [2] it was 12.7 µM (inactive); in [3], 0.461 µM (active); in test [4] it was 0.423 µM (active); in test [5], 0.0841 µM (active); in [6], 0.255 µM (active). In addition, the GI50 was 0.719 µM (active) in test [7]; 2.04 µM (inactive) in [8]; 1.05 µM (active) in test [9]; 0.256 µM (active) in test [11]; 2.19 µM (inactive) in [12]; 3.45 µM (inactive) in test [13]. Moreover, the GI50 in [14] is 16.2 µM (inactive); in [15], 2.08 µM (inactive); in [16] it was 3.03 µM (inactive); in test [17], 12.9 µM (inactive); in [18], 1.24 µM (inactive); in test [19] it was 5 µM (inactive). Further, the GI50 in [20] is 1.37 µM (inactive).
